According to patent US8754106B2, “Macrocyclic inhibitors of hepatitis C virus” (Tibotec Pharmaceuticals Ltd., priority 2005, dated 2014):

What was measured:
[1] = test system: HCV replicons (Huh-Luc cells, NS3-NS5B regions of HCV type Ib); experiment: Replicon assay (Huh-7 luc/neo cells, luciferase readout); type: cell-based; conditions: three days incubation, luciferase activity
Source text: The compounds of formula (I) were examined for activity in the inhibition of HCV RNA replication in a cellular assay. […] The cellular assay was based on a bicistronic expression construct, as described by Lohmann et al. (1999) Science vol. 285 pp. 110-113 with modifications described by Krieger et al. (2001) Journal of Virology 75: 4614-4624, in a multi-target screening strategy. In essence, the method was as follows.
The assay utilized the stably transfected cell line Huh-7 luc/neo (hereafter referred to as Huh-Luc). This cell line harbors an RNA encoding a bicistronic expression construct comprising the wild type NS3-NS5B regions of HCV type Ib translated from an Internal Ribosome Entry Site (IRES) from encephalomyocarditis virus (EMCV), preceded by a reporter portion (FfL-luciferase), and a selectable marker portion (neo^R, neomycine phosphotransferase). The construct is bordered by 5′ and 3′ NTRs (non-translated regions) from HCV type Ib. Continued culture of the replicon cells in the presence of G418 (neo^R) is dependent on the replication of the HCV RNA. The stably transfected replicon cells that express HCV RNA, which replicates autonomously and to high levels, encoding inter alia luciferase, are used for screening the antiviral compounds.
The replicon cells were plated in 384 well plates in the presence of the test and control compounds which were added in various concentrations. Following an incubation of three days, HCV replication was measured by assaying luciferase activity (using standard luciferase assay substrates and reagents and a Perkin Elmer ViewLux™ ultraHTS microplate imager). Replicon cells in the control cultures have high luciferase expression in the absence of any inhibitor. The inhibitory activity of the compound on luciferase activity was monitored on the Huh-Luc cells, enabling a dose-response curve for each test compound.

[2] = biological target: HCV NS3/4A protease (Hepatitis C virus genotype 1a (isolate H77) (HCV), UniProt P27958); experiment: Inhibition assay (enzymatic assay), depsipeptide substrate hydrolysis; type: biochemical; conditions: full-length NS3 protease 1 nM, 25 μM NS4A cofactor, 0.5 μM substrate, competitive inhibition model
Sequence of HCV NS3/4A protease (P27958 1027-1657): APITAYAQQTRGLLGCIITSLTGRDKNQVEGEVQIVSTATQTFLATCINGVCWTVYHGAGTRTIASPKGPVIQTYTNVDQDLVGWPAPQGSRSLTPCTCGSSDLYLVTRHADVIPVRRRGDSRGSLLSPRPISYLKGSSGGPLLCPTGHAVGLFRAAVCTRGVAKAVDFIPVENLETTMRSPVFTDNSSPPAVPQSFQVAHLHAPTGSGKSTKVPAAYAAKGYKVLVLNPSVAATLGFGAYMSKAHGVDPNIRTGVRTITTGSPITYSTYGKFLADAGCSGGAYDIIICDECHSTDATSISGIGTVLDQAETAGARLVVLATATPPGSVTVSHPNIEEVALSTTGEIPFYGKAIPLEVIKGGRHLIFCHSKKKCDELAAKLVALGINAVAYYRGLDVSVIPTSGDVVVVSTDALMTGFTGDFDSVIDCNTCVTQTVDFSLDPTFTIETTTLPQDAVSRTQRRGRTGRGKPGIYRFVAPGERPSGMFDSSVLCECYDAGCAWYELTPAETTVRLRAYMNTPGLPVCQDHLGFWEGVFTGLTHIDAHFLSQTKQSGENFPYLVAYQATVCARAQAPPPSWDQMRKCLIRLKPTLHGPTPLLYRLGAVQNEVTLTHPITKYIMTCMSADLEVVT
Description: [Landro, 1997 #Biochem 36 9340-9348]. […] The solutions were stored at −20° C. between measurements.
[Liu, 1999 Analytical Biochemistry 267 331-335].

[3] = Oral pharmacokinetics of Compound nr. 47 in rat with ritonavir boosting; type: in vivo, Sprague-Dawley rats; conditions: single oral 10 mg/kg Compound nr. 47 in 50% PEG400/water, boosted with 10 mg/kg ritonavir about 30 minutes before, plasma
Description: Oral pharmacokinetics of Compound nr. 47 in male and female Sprague-Dawley rats after a single dose at 10 mg/kg, using a formulation in 50% PEG400/water and the influence of “boosting” with 10 mg/kg ritonavir were investigated.
Four male and four female Sprague-Dawley (SD)-rats (approx. body weight 200-250 g) were randomly divided into 2 groups of 2 males and females each (boosted and non-boosted) based on body weight. […] The animals were fasted shortly before the trial. Drinking water remained available ad libitum.
Rats from the non-boosted group received a single oral 10 mg/kg dose of Compound nr. 47, formulated as a 3 mg/ml 50% PEG400/water at pH 8. Rats from the boosted group received a single oral dose of ritonavir, about 30 minutes before single oral dosing with 10 mg/kg of Compound nr. 47. The drug formulations were administered by oral gavage.
From each rat, a 0.5 ml blood sample was collected at 0.5 h, 1 h, 2 h, 4 h and 8 h after dosing. Plasma concentrations were determined using HPLC-MS. Results are shown in the table 2 below, expressed as fold change in pharmacokinetic parameter of the boosted group as compared to the non-boosted group.

Compound | EC50 ([1]; Hepatitis C virus, Huh-7, 72 h) [µM] | Ki [2] [nM] | EC50 [1] [µM] | Cmax, fold change of the boosted group as compared to the non-boosted group [3] [fold]
CCc1c(OC)ccc2c(O[C@@H]3C[C@H]4C(=O)N[C@]5(C(=O)O)C[C@H]5/C=C\CCCCN(C)C(=O)[C@@H]4C3)cc(-c3nc(C(C)C)cs3)nc12 [Compound 71] | 10 | – | – | –
COc1ccc2c(O[C@H]3C[C@H]4C(=O)NCCCCC/C=C\[C@@H]5C[C@@]5(C(=O)O)NC(=O)[C@@H]4C3)cc(-c3nc(C(C)C)cs3)nc2c1C [Compound 81] | 10 | 1000 | – | –
N-[[18-[2-[4-(isopropyl)thiazol-2-yl]-7-methoxy-8-methylquinolin-4-yloxy]-2,15-dioxo-3,14,16-triazatricyclo[14.3.0.0^4,6]nonadec-7-en-4-yl]carbonyl]-(cyclopropyl)sulfonamide [Compound 91] | – | 0.05 | 0.00854 | –
COc1ccc2c(O[C@@H]3C[C@H]4C(=O)N[C@]5(C(=O)NS(=O)(=O)C6CC6)C[C@H]5/C=C\CCCCN(C)C(=O)[C@@H]4C3)cc(-c3nc(C(C)C)cs3)nc2c1C [Compound 47, N-[17-[2-(4-isopropylthiazole-2-yl)-7-methoxy-8-methylquinolin-4-yloxy]-13-methyl-2,14-dioxo-3,13-diazatricyclo[13.3.0.0^4,6]octadec-7-ene-4-carbonyl](cyclopropyl)sulfonamide] | – | – | – | 2.2
